Test results published in patent US9890111B2, “Crystal structure of bifunctional transglycosylase PBP1b from E. coli and inhibitors thereof” (Academia Sinica, priority 2008, dated 2018).
≈ marks a conversion by molar mass, not a printed value. Read-outs that look alike come from different tables or passages of the source.

Experiments:
[1] = test system: Escherichia coli (ATCC 25922, EC); test: Minimal inhibitory concentration (MIC), EC; type: cell-based
Experimental: (§1) The minimal inhibitory concentration (MIC) of tested compounds was determined following the NCCLS standard. The experiments were conducted in 96-well microtiter plates using two-fold dilutions in Muller-Hilton broth with (Streptococcus pneumonia) or without blood (Bacillus subtilis, Enterococcus faecalis, Staphylococcus aureus, Escherichia coli, MRSA, Actinetobacter baumannii, Pseudomonas aeruginosa, Stenotrophomonas maltophilia, and Mycobacterium smegmatis). Exponentially growing cells at 5×10^5 cells/ml were incubated with test compounds at various concentrations. After an 18 h to 24 h incubation at 37° C., MIC was determined as the minimal concentration of the compound that prevents bacterial growth.

[2] = test system: Staphylococcus aureus (ATCC29213, SA); test: Minimal inhibitory concentration (MIC), SA; type: cell-based; conditions: for MIC SA: Staphylococcus aureus ATCC29213; for MIC: Staphylococcus aureus
Experimental: as §1

[3] = test system: Mycobacterium smegmatis (ATCC11565, MS); test: Minimal inhibitory concentration (MIC), MS; type: cell-based; conditions: for MIC MS: Mycobacterium smegmatis ATCC11565; for MIC: Mycolicibacterium smegmatis
Experimental: as §1

[4] = molecular target: T1, penicillin-binding protein 1b from E. coli (transglycosylase) (Escherichia coli, UniProt P02919); test: Lipid II polymerization / transglycosylase (TG) activity assay; type: biochemical; conditions: for remaining activity at 100 µM: read-out: TG Activity at various concentration of cmpd: 100 μM; for TG Activity at various concentration of cmpd: 50 μM: 50 μM compound; for TG Activity at various concentration of cmpd: 50 μM / TG Activity at various concentration of cmpd: 100 μM / TG Activity at various concentration of cmpd: 25 μM: TG activity remaining (0% = full inhibition); for TG Activity at various concentration of cmpd: 100 μM: 100 μM compound; for TG Activity at various concentration of cmpd: 25 μM: 25 μM compound; for remaining activity at 50 µM: read-out: TG Activity at various concentration of cmpd: 50 μM
T1 construct: PBP1b[58-804] was amplified from E. coli genomic DNA and cloned into the expression vector pET15b; His6 (N, cleaved yes); made in house; host or cells: E. coli BL21(DE3)
T1 sequence (P02919 58-804): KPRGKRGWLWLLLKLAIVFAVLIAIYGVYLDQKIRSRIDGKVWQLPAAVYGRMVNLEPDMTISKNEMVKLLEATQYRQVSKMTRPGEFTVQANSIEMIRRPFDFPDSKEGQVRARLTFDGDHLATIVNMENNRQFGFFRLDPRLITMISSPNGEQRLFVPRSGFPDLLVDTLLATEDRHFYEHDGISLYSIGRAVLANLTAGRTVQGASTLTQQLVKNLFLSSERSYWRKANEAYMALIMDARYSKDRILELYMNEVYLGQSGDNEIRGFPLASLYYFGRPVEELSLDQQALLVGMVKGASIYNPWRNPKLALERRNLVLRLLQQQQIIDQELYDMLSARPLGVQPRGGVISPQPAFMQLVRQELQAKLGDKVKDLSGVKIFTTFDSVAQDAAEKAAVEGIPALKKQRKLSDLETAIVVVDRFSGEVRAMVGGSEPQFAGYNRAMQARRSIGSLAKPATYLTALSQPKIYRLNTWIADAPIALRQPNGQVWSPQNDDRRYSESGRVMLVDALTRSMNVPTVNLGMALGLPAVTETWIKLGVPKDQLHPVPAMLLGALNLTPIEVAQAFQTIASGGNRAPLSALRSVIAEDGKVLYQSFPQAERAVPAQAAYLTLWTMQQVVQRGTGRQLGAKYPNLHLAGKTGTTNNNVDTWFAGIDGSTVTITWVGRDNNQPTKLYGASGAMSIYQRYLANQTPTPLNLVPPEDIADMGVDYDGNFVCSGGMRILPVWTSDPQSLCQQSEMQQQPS
Experimental: Lipid II polymerization assays were carried out by incubating 100 μM fluorophore-labeled lipid II and penicillin-binding protein 1b from E. coli in tubes containing 10 ng/μL N-acetyl muramidase in 50 mM Tris.HCl (pH 8.0), 10 mM MgCl2, 0.1% Triton X-100, 10% DMSO, and 15% MeOH for 30 minutes (Van Nieuwenhze et al. J Am Chem Soc 2002, 124, 3656.). The fluorophore can be dansyl chloride, NBD, BODIPY, fluorescein. Reaction supernatants were then injected onto an anion-exchange HPLC column (SAX1, Supelco Co.) and eluted with a linear gradient of ammonium acetate (20 mM to 0.5 M) in methanol. The eluant was monitored for fluorescence with λex=466 nm and λem=535 nm.
Purified protein was concentrated in 20 mM Tris-HCl (pH 8.0), 300 mM NaCl, and 1 mM DDM. Instead of using Dansyl lipid II, 6-(N-(7-nitrobenz-2-oxa-1,3-diazol-4-yl)amino) hexanoyl (NBD)-labeled Lipid II was prepared as described (Taubes G (2008) Science 321:356-361; Payne D J (2008) Science 321:1644-1645) and used as a substrate to measure TG enzymatic activity, with approach similar to what has been described previously (Holtje J V (1998) Microbiol Mol Biol Rev 62:181-203). Assays were carried out by using the following condition: NBD-Lipid II, 20 nM protein, 50 mM Tris HCl (pH 8.0), 10 mMCaCl2, 0.085% decyl PEG (Anatrace), and 15% MeOH at 37° C. for 0, 1, 3, 5, 7, 9, 20, and 30 min. The concentration of NBD-Lipid II was varied from 1 to 100 μM to determine the rate of the TG activity. After the reaction, 200 μM moenomycin was added to stop the reaction, and 13 μM muramidase (Sigma-Aldrich) was added to digest the TG products to result in NBD-Lipid II without lipid tails. The fluorescent signal decrease of substrate and increase of NBD-Lipid II without lipid tails were detected by anion-exchange column SAX1 (Supelco) on HPLC (Hitachi). The elution procedures was a linear gradient of ammonium acetate (20 mM to 1 M) in MeOH monitored at λexcitation=466 nm and λemission=535 nm. The kinetic parameter was estimated by following the Michaelis-Menten equation. To investigate the importance of transmembrane (TM) helix, PBP1b and PBP1bΔTM (residues Met-1 to Leu-87 were removed) were extracted with the buffer containing 20 mM Tris-HCl (pH 8.0), 300 mM NaCl, and 13 mM FOS-CHOLINE-14 (Anatrace). The protein was purified by nickel chelation chromatography in the presence of 1 mM DDM. The activity assay was carried out by using the following condition: 12 μM NBD-Lipid II, 20 nM protein, 50 mM Tris-HCl (pH 8.0), 10 mM CaCl2, 0.085% decyl PEG, and 15% MeOH at 37° C. for time 0, 1, 3, 5, 7, 9, 20, and 30 min. The initial velocity was used to compare the activity of full-length PBP1b and PBP1bΔTM.

[5] = test system: methicillin-resistant Staphylococcus aureus (ATCC33592, MRSA); test: Minimal inhibitory concentration (MIC), MRSA; type: cell-based; conditions: for MIC: Staphylococcus aureus, read-out: MIC MRSA
Experimental: as §1

[6] = ATCC25922, Escherichia coli ATCC 25922, read-out: MIC EC
[7] = methicillin-resistant Staphylococcus aureus ATCC33592
[8] = ATCC29213, Staphylococcus aureus ATCC29213, read-out: MIC SA
[9] = ATCC11565, Mycobacterium smegmatis ATCC11565, read-out: MIC MS

Structure (SMILES) | MIC SA [2] | MIC MS [3] | MIC EC ([1]; Escherichia coli ATCC 25922) | TG Activity at various concentration of cmpd: 50 μM [4] | TG Activity at various concentration of cmpd: 100 μM [4] | MIC MRSA [5, 7] | other results
O=C(Nc1cc(Cl)c(Cl)c(Cl)c1)c1cc(Cl)cc(Cl)c1O [Compound 004] | 0.125 µg/mL (≈ 0.324 µM) | ≦0.03 μg/ml | – | – | – | – | MIC [1, 6]: 16 µg/mL (≈ 41.5 µM); remaining activity at 100 µM [4]: 100%; MIC [5, 7]: 0.5 µg/mL (≈ 1.3 µM)
O=C(c1ccc(Cl)cc1)c1cc(NC(=O)c2cc(Cl)cc(Br)c2O)c(Cl)cc1Cl [Compound 123] | 0.25 µg/mL (≈ 0.468 µM) | 0.06 µg/mL (≈ 0.112 µM) | >256 µg/mL | 60% | 0% | 0.25 µg/mL (≈ 0.468 µM) | –
O=C(Nc1cc(Cl)ccc1O)c1ccc(Cl)c(C(=O)c2ccc(Cl)cc2)c1 [Compound 126] | 1 µg/mL (≈ 2.38 µM) | 0.06 µg/mL (≈ 0.143 µM) | >256 µg/mL | 100% | 100% | 0.125 µg/mL (≈ 0.297 µM) | –
O=C(Nc1cc(Cl)cc(C(=O)c2ccc(Cl)cc2)c1Cl)c1cc(Cl)cc(Br)c1O [Compound 117] | 0.5 µg/mL (≈ 0.936 µM) | 0.25 µg/mL (≈ 0.468 µM) | >256 µg/mL | 100% | 0% | 0.5 µg/mL (≈ 0.936 µM) | –
O=C(Nc1ccc(Cl)c(Cl)c1)c1cc(Cl)cc(Cl)c1O [Compound 003] | – | – | – | – | – | – | MIC ([1]; Escherichia coli, ATCC25922, read-out: MIC EC): 32 µg/mL (≈ 91.2 µM); MIC ([2]; ATCC29213, read-out: MIC SA): 0.25 µg/mL (≈ 0.712 µM); MIC ([3]; ATCC11565, read-out: MIC MS): 0.06 µg/mL (≈ 0.171 µM); remaining activity at 100 µM [4]: 100%; MIC [5]: 1 µg/mL (≈ 2.85 µM)
Cc1ccc(C(C)C)c(Oc2ccc(Cl)cc2NC(=O)c2cc(Cl)cc(Cl)c2O)c1 [Compound 209] | 1 µg/mL (≈ 2.15 µM) | 0.5 µg/mL (≈ 1.08 µM) | – | 0% | – | 0.25 µg/mL (≈ 0.538 µM) | TG Activity at various concentration of cmpd: 25 μM [4]: 60%
Cc1ccc(C(=O)c2cc(Cl)cc(NC(=O)c3cc(Br)cc(Br)c3O)c2Cl)cc1 [Compound 145] | >4 µg/mL | >4 µg/mL | – | 100% | 0% | >4 µg/mL | –
Cc1ccc(C(C)C)cc1Oc1ccc(Cl)cc1NC(=O)c1cc(Cl)cc(Br)c1O [Compound 121] | 0.25 µg/mL (≈ 0.491 µM) | 0.25 µg/mL (≈ 0.491 µM) | >256 µg/mL | 0% | 0% | 0.125 µg/mL (≈ 0.245 µM) | TG Activity at various concentration of cmpd: 25 μM [4]: 90%
O=C(Nc1cc(Cl)cc(C(=O)c2ccccc2)c1Cl)c1cc(Br)cc(Br)c1O [Compound 116] | 1 µg/mL (≈ 1.84 µM) | 0.5 µg/mL (≈ 0.919 µM) | >256 µg/mL | 100% | 0% | 8 µg/mL (≈ 14.7 µM) | –
Cc1ccc(C(C)C)c(Oc2ccc(Cl)cc2NC(=O)c2cc(I)cc(I)c2O)c1 [Compound 208] | 4 µg/mL (≈ 6.18 µM) | 2 µg/mL (≈ 3.09 µM) | – | 0% | – | 0.5 µg/mL (≈ 0.772 µM) | TG Activity at various concentration of cmpd: 25 μM [4]: 100%
O=C(Nc1cccc(Cl)c1)c1cc(Br)cc(Br)c1O [Compound 203] | – | – | – | – | – | – | MIC [2, 8]: 2 µg/mL (≈ 4.93 µM); MIC [3, 9]: 4 µg/mL (≈ 9.87 µM); remaining activity at 50 µM [4]: 100%; remaining activity at 100 µM [4]: 100%; MIC [5, 7]: 2 µg/mL (≈ 4.93 µM)
O=C(Nc1ccc(Oc2ccc(Cl)cc2)c(Cl)c1)c1cc(Br)cc(Br)c1O [Compound 122] | 0.5 µg/mL (≈ 0.94 µM) | 0.125 µg/mL (≈ 0.235 µM) | >256 µg/mL | 60% | 0% | 0.25 µg/mL (≈ 0.47 µM) | –
O=C(Nc1cc(Cl)ccc1Cl)c1cc(Br)cc(Br)c1O [Compound 127] | – | – | – | – | – | – | MIC [1, 6]: 64 µg/mL (≈ 145 µM); MIC [2, 8]: 1 µg/mL (≈ 2.27 µM); MIC [3, 9]: 1 µg/mL (≈ 2.27 µM); remaining activity at 50 µM [4]: 100%; remaining activity at 100 µM [4]: 100%; MIC [5, 7]: 1 µg/mL (≈ 2.27 µM)
O=C(Nc1ccc(Cl)cc1)c1cc(Br)cc(Br)c1O [Compound 118] | – | – | – | – | – | 4 µg/mL (≈ 9.87 µM) | MIC [1, 6]: 128 µg/mL (≈ 316 µM); MIC [2, 8]: 1 µg/mL (≈ 2.47 µM); MIC [3, 9]: 1 µg/mL (≈ 2.47 µM); remaining activity at 50 µM [4]: 100%; remaining activity at 100 µM [4]: 100%
O=C(Nc1ccc(O)cc1)c1cc(Br)cc(Br)c1O [KTS-1] | – | – | – | – | – | – | MIC [2, 8]: 32 µg/mL (≈ 82.7 µM); MIC [3, 9]: 16 µg/mL (≈ 41.3 µM); remaining activity at 50 µM [4]: 70%; MIC [5, 7]: > 32 µg/mL
Cc1ccc(C(C)C)c(Oc2ccccc2NC(=O)c2cc(I)cc(I)c2O)c1 [Compound 201] | 4 µg/mL (≈ 6.52 µM) | 8 µg/mL (≈ 13 µM) | – | 0% | – | 2 µg/mL (≈ 3.26 µM) | TG Activity at various concentration of cmpd: 25 μM [4]: 30%
O=C(Nc1ccccc1O)c1cc(Br)cc(Br)c1O [KTS-3] | – | – | – | – | – | – | MIC [2, 8]: 4 µg/mL (≈ 10.3 µM); MIC [3, 9]: 4 µg/mL (≈ 10.3 µM); remaining activity at 50 µM [4]: 70%; MIC [5, 7]: 4 µg/mL (≈ 10.3 µM)
Cc1ccc(C(C)C)cc1Oc1ccc(Cl)cc1NC(=O)c1cc(Cl)cc(Br)c1O [Compound 206] | 1 µg/mL (≈ 1.96 µM) | 1 µg/mL (≈ 1.96 µM) | – | 0% | – | 0.5 µg/mL (≈ 0.982 µM) | TG Activity at various concentration of cmpd: 25 μM [4]: 60%
